± gives the standard deviation of the averaged measurements.
What was measured:
Settings in all cases: 72 h
HepG2 [1] = test: relative viability EC50 (midpoint between 100% and the lowest measured viability); higher = less toxic
Vero E6 [2] = test: as above
Caco-2 [3] = test: as above
U2OS [4] = test: as above
Calu-3 [5] = test: as above
HepG2 [6] = test: cell viability relative to DMSO; higher = less toxic
Vero E6 [7] = test: as above
Caco-2 [8] = test: as above
U2OS [9] = test: as above
Calu-3 [10] = test: as above
HepG2 [11] = test: drug sensitivity score (DSS) for viability; higher = more toxic; extreme values may be limits of the assay
Vero E6 [12] = test: as above
Caco-2 [13] = test: as above
U2OS [14] = test: as above
Calu-3 [15] = test: as above

SMILES	relative viability EC50 (HepG2 [1]) [µM]	relative viability EC50 (Vero E6 [2]) [µM]	relative viability EC50 (Caco-2 [3]) [µM]	relative viability EC50 (U2OS [4]) [µM]	relative viability EC50 (Calu-3 [5]) [µM]	cell viability (HepG2 [6]; 1 nM) [%]	cell viability (HepG2 [6]; 10 nM) [%]	cell viability (HepG2 [6]; 100 nM) [%]	cell viability (HepG2 [6]; 1000 nM) [%]	cell viability (HepG2 [6]; 10000 nM) [%]	cell viability (Vero E6 [7]; 1 nM) [%]	cell viability (Vero E6 [7]; 10 nM) [%]	cell viability (Vero E6 [7]; 100 nM) [%]	cell viability (Vero E6 [7]; 1000 nM) [%]	cell viability (Vero E6 [7]; 10000 nM) [%]	cell viability (Caco-2 [8]; 1 nM) [%]	cell viability (Caco-2 [8]; 10 nM) [%]	cell viability (Caco-2 [8]; 100 nM) [%]	cell viability (Caco-2 [8]; 1000 nM) [%]	cell viability (Caco-2 [8]; 10000 nM) [%]	cell viability (U2OS [9]; 1 nM) [%]	cell viability (U2OS [9]; 10 nM) [%]	cell viability (U2OS [9]; 100 nM) [%]	cell viability (U2OS [9]; 1000 nM) [%]	cell viability (U2OS [9]; 10000 nM) [%]	cell viability (Calu-3 [10]; 1 nM) [%]	cell viability (Calu-3 [10]; 10 nM) [%]	cell viability (Calu-3 [10]; 100 nM) [%]	cell viability (Calu-3 [10]; 1000 nM) [%]	cell viability (Calu-3 [10]; 10000 nM) [%]	drug sensitivity score (HepG2 [11])	drug sensitivity score (Vero E6 [12])	drug sensitivity score (Caco-2 [13])	drug sensitivity score (U2OS [14])	drug sensitivity score (Calu-3 [15])
CN1CCc2cc(Cl)c(O)cc2[C@@H](c2ccccc2)C1	> 10	> 10	> 10	> 10	> 10	98.2	96.3	97.2	97.4	89.9	95.6	95	93.5	85.1	102	96.3	93.2	96.3	100	99.1	97.5	100	97.8	102	101	93.3	103	145	103	97.9	0	0	0	0	0
O=C(O)CCCc1c[nH]c2ccccc12 [3-indolebutyric-acid]	> 10	> 10	> 10	> 10	> 10	98.3	99.4	92.8	87.9	101	102	101	101	97.2	94.2	99.4	88.5	89.6	92.5	91.7	102	102	101	95	99.9	99.6	100	97.7	100	99.3	0	0	1.2	0	0
C[C@H](N[C@@H](CCc1ccccc1)C(=O)O)C(=O)N1Cc2ccccc2C[C@H]1C(=O)O [quinaprilat]	> 10	> 10	> 10	> 10	> 10	107	94.9	98.4	110	94.9	91.8	98.9	91.8	104	106	102	98.2	96.8	100	92.1	94.7	96.1	98.3	98.1	106	97.5	97.6	91.3	97	93.5	0	0	0	0	0
O=C(O)C(=O)Nc1cccc(-c2nnn[nH]2)c1 [acitazanolast]	> 10	> 10	> 10	> 10	> 10	94.8	99	101	96.3	110	98.7	99.5	99.4	100	97.4	100	86.7	88.4	95.9	97.1	99.8	98.4	99.3	101	96	100	107	91.3	105	99	0	0	0	0	0
CC(C)(S)C(N)C(=O)O (stereo in doubt) [penicillamine-(racemic)]	> 10	> 10	> 10	> 10	> 10	103	106	110	95	100	104 ± 6.7	102 ± 5.4	102 ± 2.6	99.9 ± 7.1	101 ± 3.6	105 ± 1.9	98 ± 0.42	96 ± 3.5	93.7 ± 4.4	98.55 ± 0.35	103 ± 1.8	97.4 ± 2.1	100.2 ± 0.35	98.5 ± 6.2	101 ± 1.1	95.7 ± 11	94.9 ± 13	98.3 ± 5	106 ± 3.7	108 ± 3.2	0	0	0	0	0
C=CCc1cc(OC)c(O)c(C(=O)NCCO)c1 [alibendol]	> 10	> 10	> 10	> 10	> 10	92.4	98.7	101	92.5	102	105	99.2	99.6	105	97.4	90.7	112	90.5	93	99.9	102	105	95	104	99.6	93.6	99.3	87.2	99.7	101	0	0	0	0	0
CC1=CC(=O)c2ccccc2C1=O [menadione]	> 10	> 10	> 10	> 10	> 10	102	100	116	106	99	104	104	99.9	102	95.1	100	103	100	104	94.2	95.4	101	96.4	99.7	93.1	95.8	104	112	97.9	106	0	0	0	0	0

Source: the supplement of paper PMC13380429
